Molecular target: T1, SpOMT2884 (Streptomyces peucetius, UniProt T1WTM5)
T1 construct: gene OMT2884; codon-optimised synthetic gene in pETDuet-1 (NdeI/XhoI), expressed in E. coli BL21(DE3); whole-cell biotransformation, not purified
T1 sequence (T1WTM5 1-223): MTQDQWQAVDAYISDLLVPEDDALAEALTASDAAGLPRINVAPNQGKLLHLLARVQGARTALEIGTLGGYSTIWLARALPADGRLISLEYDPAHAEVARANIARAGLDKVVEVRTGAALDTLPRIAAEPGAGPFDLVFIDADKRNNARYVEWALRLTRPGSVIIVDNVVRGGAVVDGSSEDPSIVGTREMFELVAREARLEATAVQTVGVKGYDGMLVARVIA
Assay: whole-cell biotransformation, UPLC; products by MS and NMR
Format: cell-based
Conditions: recombinant E. coli BL21(DE3), 0.1 mM substrate, 37 °C, endogenous SAM; 7-O- and 8-O-methylation

SMILES: O=c1c(-c2ccc(O)cc2)coc2c(O)c(O)ccc12 [8-hydroxydaidzein]
- whole-cell biotransformation, UPLC; products by MS and NMR: SpOMT2884 catalyzes either 7-O-methylation or 8-O-methylation in 8-hydroxydaidzein

— PMC4661928, “Production of Two Novel Methoxy-Isoflavones from Biotransformation of 8-Hydroxydaidzein by Recombinant Escherichia coli Expressing O-Methyltransferase SpOMT2884 from Streptomyces peucetius” (International Journal of Molecular Sciences, 2015)
